Experimental data: ChEMBL document CHEMBL2429845, “Design, synthesis, and antimicrobial activity of some novel homodrimane sesquiterpenoids with diazine skeleton” (2013)

Key:
[Candida] sake [1] = Antifungal activity against Candida sake at 10 mg/ml after 48 hrs by agar diffusion assay; format: functional; settings: Fermentozyma sake, read-out: DIZ
Nakaseomyces glabratus [2] = assay: Antifungal activity against Candida glabrata ATCC MYA 2950 at 10 mg/ml after 48 hrs by agar diffusion assay; format: functional; settings: ATCC MYA 2950, 48 h, read-out: DIZ
Candida albicans [3] = assay: Antifungal activity against Candida albicans ATCC 10231 at 10 mg/ml after 48 hrs by agar diffusion assay; format: functional; settings: ATCC 10231, 48 h, read-out: DIZ
Pseudomonas aeruginosa [4] = assay: Antibacterial activity against Pseudomonas aeruginosa ATCC 27853 at 10 mg/ml after 24 hrs by agar diffusion assay; format: functional; settings: ATCC 27853, 24 h, read-out: DIZ
Escherichia coli [5] = assay: Antibacterial activity against Escherichia coli ATCC 25922 at 10 mg/ml after 24 hrs by agar diffusion assay; format: functional; settings: ATCC 25922, 24 h, read-out: DIZ
Bacillus subtilis [6] = assay: Antibacterial activity against Bacillus subtilis at 10 mg/ml after 24 hrs by agar diffusion assay; format: functional; settings: read-out: DIZ
Bacillus cereus [7] = assay: Antibacterial activity against Bacillus cereus ATCC 14579 at 10 mg/ml after 24 hrs by agar diffusion assay; format: functional; settings: ATCC 14579, 24 h, read-out: DIZ
Micrococcus luteus [8] = assay: Antibacterial activity against Sarcina lutea ATCC 9341 at 10 mg/ml after 24 hrs by agar diffusion assay; format: functional; settings: ATCC 9341, 24 h, read-out: DIZ
Staphylococcus aureus [9] = assay: Antibacterial activity against Staphylococcus aureus ATCC 25923 at 10 mg/ml after 24 hrs by agar diffusion assay; format: functional; settings: ATCC 25923, 24 h, read-out: DIZ
Pseudomonas aeruginosa [10] = assay: Antibacterial activity against Pseudomonas aeruginosa ATCC 27853 at 30 ug/disk after 24 hrs by agar diffusion assay; format: functional; settings: ATCC 27853, 24 h, read-out: DIZ
Escherichia coli [11] = assay: Antibacterial activity against Escherichia coli ATCC 25922 at 30 ug/disk after 24 hrs by agar diffusion assay; format: functional; settings: ATCC 25922, 24 h, read-out: DIZ
Bacillus subtilis [12] = assay: Antibacterial activity against Bacillus subtilis at 30 ug/disk after 24 hrs by agar diffusion assay; format: functional; settings: read-out: DIZ
Bacillus cereus [13] = assay: Antibacterial activity against Bacillus cereus ATCC 14579 at 30 ug/disk after 24 hrs by agar diffusion assay; format: functional; settings: ATCC 14579, 24 h, read-out: DIZ
Micrococcus luteus [14] = assay: Antibacterial activity against Sarcina lutea ATCC 9341 at 30 ug/disk after 24 hrs by agar diffusion assay; format: functional; settings: ATCC 9341, 24 h, read-out: DIZ
Staphylococcus aureus [15] = assay: Antibacterial activity against Staphylococcus aureus ATCC 25923 at 30 ug/disk after 24 hrs by agar diffusion assay; format: functional; settings: ATCC 25923, 24 h, read-out: DIZ
Pseudomonas aeruginosa [16] = assay: Antibacterial activity against Pseudomonas aeruginosa ATCC 27853 at 25 ug/disk after 24 hrs by agar diffusion assay; format: functional; settings: ATCC 27853, 24 h, read-out: DIZ
Escherichia coli [17] = assay: Antibacterial activity against Escherichia coli ATCC 25922 at 25 ug/disk after 24 hrs by agar diffusion assay; format: functional; settings: ATCC 25922, 24 h, read-out: DIZ
Bacillus subtilis [18] = assay: Antibacterial activity against Bacillus subtilis at 25 ug/disk after 24 hrs by agar diffusion assay; format: functional; settings: read-out: DIZ
Bacillus cereus [19] = assay: Antibacterial activity against Bacillus cereus ATCC 14579 at 25 ug/disk after 24 hrs by agar diffusion assay; format: functional; settings: ATCC 14579, 24 h, read-out: DIZ
Micrococcus luteus [20] = assay: Antibacterial activity against Sarcina lutea ATCC 9341 at 25 ug/disk after 24 hrs by agar diffusion assay; format: functional; settings: ATCC 9341, 24 h, read-out: DIZ
Staphylococcus aureus [21] = assay: Antibacterial activity against Staphylococcus aureus ATCC 25923 at 25 ug/disk after 24 hrs by agar diffusion assay; format: functional; settings: ATCC 25923, 24 h, read-out: DIZ
[Candida] sake [22] = Antifungal activity against Candida sake 100 mg/disk after 48 hrs by agar diffusion assay; format: functional, organism-based
Nakaseomyces glabratus [23] = assay: Antifungal activity against Candida glabrata ATCC MYA 2950 100 mg/disk after 48 hrs by agar diffusion assay; format: functional, organism-based
Candida albicans [24] = assay: Antifungal activity against Candida albicans ATCC 10231 at 100 mg/disk after 48 hrs by agar diffusion assay; format: functional, organism-based

Q: Which results are given for `C=C1CC[C@H]2C(C)(C)CCC[C@]2(C)[C@H]1CC(=O)Nc1cnccn1`?
A: zone of inhibition at 10000 µg/mL ([Candida] sake [1]): 0 mm; zone of inhibition at 10000 µg/mL (Nakaseomyces glabratus [2]): 0 mm; zone of inhibition at 10000 µg/mL (Candida albicans [3]): 0 mm; zone of inhibition at 10000 µg/mL (Pseudomonas aeruginosa [4]): 0 mm; zone of inhibition at 10000 µg/mL (Escherichia coli [5]): 0 mm; zone of inhibition at 10000 µg/mL (Bacillus subtilis [6]): 0 mm; zone of inhibition at 10000 µg/mL (Bacillus cereus [7]): 10 mm; zone of inhibition at 10000 µg/mL (Micrococcus luteus [8]): 0 mm; zone of inhibition at 10000 µg/mL (Staphylococcus aureus [9]): 15 mm

Q: Which results are given for `O=C(N[C@H](CO)[C@H](O)c1ccc([N+](=O)[O-])cc1)C(Cl)Cl` [CHLORAMPHENICOL]?
A: zone of inhibition at 30 µg/disc (Pseudomonas aeruginosa [10]): 19 mm; zone of inhibition at 30 µg/disc (Escherichia coli [11]): 29 mm; zone of inhibition at 30 µg/disc (Bacillus subtilis [12]): 31 mm; zone of inhibition at 30 µg/disc (Bacillus cereus [13]): 28 mm; zone of inhibition at 30 µg/disc (Micrococcus luteus [14]): 30 mm; zone of inhibition at 30 µg/disc (Staphylococcus aureus [15]): 25 mm

Q: `CC1(C)S[C@@H]2[C@H](NC(=O)[C@H](N)c3ccccc3)C(=O)N2[C@H]1C(=O)O` [AMPICILLIN] was tested. Which zone of inhibition at 25 µg/disc (Pseudomonas aeruginosa [16]) did it give?
A: 0 mm

Q: And the zone of inhibition at 25 µg/disc (Escherichia coli [17])?
A: 20 mm

Q: And the zone of inhibition at 25 µg/disc (Bacillus subtilis [18])?
A: 25 mm

Q: And the zone of inhibition at 25 µg/disc (Bacillus cereus [19])?
A: 0 mm

Q: And the zone of inhibition at 25 µg/disc (Micrococcus luteus [20])?
A: 30 mm

Q: What about the zone of inhibition at 25 µg/disc (Staphylococcus aureus [21]) of the same compound?
A: 25 mm

Q: Which results are given for NYSTATIN?
A: inhibition zone (IZ) ([Candida] sake [22]): 31 mm; inhibition zone (IZ) (Nakaseomyces glabratus [23]): 26 mm; inhibition zone (IZ) (Candida albicans [24]): 29 mm

Q: With `C=C1CC[C@H]2C(C)(C)CCC[C@]2(C)[C@H]1CC(=O)Nc1ccncn1` as the compound, how does the zone of inhibition at 10000 µg/mL ([Candida] sake [1]) read?
A: 0 mm

Q: And the zone of inhibition at 10000 µg/mL (Nakaseomyces glabratus [2])?
A: 0 mm

Q: And the zone of inhibition at 10000 µg/mL (Candida albicans [3])?
A: 0 mm

Q: What about the zone of inhibition at 10000 µg/mL (Pseudomonas aeruginosa [4]) of the same compound?
A: 0 mm

Q: What about the zone of inhibition at 10000 µg/mL (Escherichia coli [5]) of the same compound?
A: 12 mm

Q: What about the zone of inhibition at 10000 µg/mL (Bacillus subtilis [6]) of the same compound?
A: 7 mm

Q: What about the zone of inhibition at 10000 µg/mL (Bacillus cereus [7]) of the same compound?
A: 10 mm

Q: And the zone of inhibition at 10000 µg/mL (Micrococcus luteus [8])?
A: 18 mm

Q: What about the zone of inhibition at 10000 µg/mL (Staphylococcus aureus [9]) of the same compound?
A: 15 mm

Q: How did the zone of inhibition at 10000 µg/mL ([Candida] sake [1]) turn out when `C=C1CC[C@H]2C(C)(C)CCC[C@]2(C)[C@H]1CC(=O)N(C(=O)C[C@H]1C(=C)CC[C@H]2C(C)(C)CCC[C@]12C)c1ncccn1` was run?
A: 0 mm

Q: What about the zone of inhibition at 10000 µg/mL (Nakaseomyces glabratus [2]) of the same compound?
A: 0 mm

Q: And the zone of inhibition at 10000 µg/mL (Candida albicans [3])?
A: 0 mm

Q: And the zone of inhibition at 10000 µg/mL (Pseudomonas aeruginosa [4])?
A: 10 mm

Q: And the zone of inhibition at 10000 µg/mL (Escherichia coli [5])?
A: 0 mm

Q: And the zone of inhibition at 10000 µg/mL (Bacillus subtilis [6])?
A: 0 mm

Q: What about the zone of inhibition at 10000 µg/mL (Bacillus cereus [7]) of the same compound?
A: 0 mm

Q: And the zone of inhibition at 10000 µg/mL (Micrococcus luteus [8])?
A: 0 mm

Q: And the zone of inhibition at 10000 µg/mL (Staphylococcus aureus [9])?
A: 10 mm

Q: How did the zone of inhibition at 10000 µg/mL ([Candida] sake [1]) turn out when `C=C1CC[C@H]2C(C)(C)CCC[C@]2(C)[C@H]1CC(=O)Nc1ncccn1` was run?
A: 0 mm

Q: What about the zone of inhibition at 10000 µg/mL (Nakaseomyces glabratus [2]) of the same compound?
A: 0 mm

Q: And the zone of inhibition at 10000 µg/mL (Candida albicans [3])?
A: 0 mm

Q: And the zone of inhibition at 10000 µg/mL (Pseudomonas aeruginosa [4])?
A: 0 mm

Q: And the zone of inhibition at 10000 µg/mL (Escherichia coli [5])?
A: 10 mm

Q: What about the zone of inhibition at 10000 µg/mL (Bacillus subtilis [6]) of the same compound?
A: 7 mm

Q: What about the zone of inhibition at 10000 µg/mL (Bacillus cereus [7]) of the same compound?
A: 12 mm

Q: And the zone of inhibition at 10000 µg/mL (Micrococcus luteus [8])?
A: 19 mm

Q: And the zone of inhibition at 10000 µg/mL (Staphylococcus aureus [9])?
A: 14 mm

Q: How did the zone of inhibition at 10000 µg/mL ([Candida] sake [1]) turn out when `C=C1CC[C@H]2C(C)(C)CCC[C@]2(C)[C@H]1CC(=O)N(C(=O)NC1CCCCC1)C1CCCCC1` was run?
A: 0 mm

Q: What about the zone of inhibition at 10000 µg/mL (Nakaseomyces glabratus [2]) of the same compound?
A: 0 mm

Q: What about the zone of inhibition at 10000 µg/mL (Candida albicans [3]) of the same compound?
A: 0 mm

Q: And the zone of inhibition at 10000 µg/mL (Pseudomonas aeruginosa [4])?
A: 0 mm

Q: And the zone of inhibition at 10000 µg/mL (Escherichia coli [5])?
A: 0 mm

Q: What about the zone of inhibition at 10000 µg/mL (Bacillus subtilis [6]) of the same compound?
A: 0 mm

Q: And the zone of inhibition at 10000 µg/mL (Bacillus cereus [7])?
A: 11 mm

Q: What about the zone of inhibition at 10000 µg/mL (Micrococcus luteus [8]) of the same compound?
A: 0 mm

Q: What about the zone of inhibition at 10000 µg/mL (Staphylococcus aureus [9]) of the same compound?
A: 19 mm
